Results taken from the NIST ThermoML archive (doi:10.1021/je1012235).

Conditions: 101.33 kPa, Liquid; for mass density: Vibrating tube method

CC/C=C\C/C=C\C/C=C\CCCCCCCC(=O)OCC [ethyl 9,12,15-octadecatrienoate]
Conditions	mass density [kg/m3]	viscosity [mPa·s]
278.15 K	904.6	6.282
283.15 K	900.8	5.538
288.15 K	897	4.921
293.15 K	893.3	4.401
298.15 K	889.5	3.961
303.15 K	885.8	3.583
308.15 K	882	3.258
313.15 K	878.3	2.975
318.15 K	874.6	2.728
323.15 K	870.9	2.511
328.15 K	867.2	2.32
333.15 K	863.5	2.151
338.15 K	859.9	2
343.15 K	856.2	1.866
348.15 K	852.5	1.745
353.15 K	848.9	1.636
358.15 K	845.3	1.538
363.15 K	841.6	1.449
368.15 K	838	1.368
373.15 K	834.5	1.295

CCCCCCCCCCCCCCCCCCCC(=O)OCC [ethyl eicosanoate]
Conditions	mass density [kg/m3]	viscosity [mPa·s]
318.15 K	841.2	5.657
323.15 K	837.7	4.973
328.15 K	834.1	4.507
333.15 K	830.5	4.058
338.15 K	827	3.671
343.15 K	823.5	3.337
348.15 K	820	3.046
353.15 K	816.6	2.78
358.15 K	813.2	2.569
363.15 K	809.7	2.372
368.15 K	806.1	2.196
373.15 K	802.4	2.039

CCCCC/C=C\C/C=C\CCCCCCCC(=O)OCC [ethyl linoleate]
Conditions	mass density [kg/m3]	viscosity [mPa·s]
278.15 K	893.8	8.188
283.15 K	890	7.084
288.15 K	886.3	6.165
293.15 K	882.6	5.423
298.15 K	878.8	4.807
303.15 K	875.2	4.307
308.15 K	871.5	3.854
313.15 K	867.8	3.406
318.15 K	864.2	3.161
323.15 K	860.6	2.829
328.15 K	856.9	2.641
333.15 K	853.3	2.429
338.15 K	849.7	2.241
343.15 K	846	2.075
348.15 K	842.4	1.927
353.15 K	838.8	1.773
358.15 K	835.2	1.676
363.15 K	831.6	1.569

CCCCCC/C=C\CCCCCCCC(=O)OC [methyl (Z)-9-hexadecenoate]
Conditions	mass density [kg/m3]	viscosity [mPa·s]
278.15 K	880.4	6.169
283.15 K	876.6	5.367
288.15 K	872.8	4.662
293.15 K	869	4.107
298.15 K	865.2	3.647
303.15 K	861.4	3.289
308.15 K	857.6	2.943
313.15 K	853.8	2.616
318.15 K	850	2.422
323.15 K	846.3	2.175
328.15 K	842.5	2.03
333.15 K	838.7	1.87
338.15 K	834.9	1.728
343.15 K	831.1	1.595
348.15 K	827.3	1.482
353.15 K	823.5	1.366
358.15 K	819.8	1.29
363.15 K	816	1.207

CCCCCCCC/C=C\CCCCCCCCCCCC(=O)OC [methyl (Z)-13-docosenoate]
Conditions	mass density [kg/m3]	viscosity [mPa·s]
278.15 K	881.6	18.09
283.15 K	877.9	14.94
288.15 K	874.3	12.56
293.15 K	870.7	10.66
298.15 K	867.1	9.141
303.15 K	863.6	7.907
308.15 K	860	6.917
313.15 K	856.5	5.958
318.15 K	853	5.402
323.15 K	849.4	4.76
328.15 K	845.9	4.331
333.15 K	842.4	3.91
338.15 K	839	3.548
343.15 K	835.5	3.234
348.15 K	832	2.961
353.15 K	828.6	2.707
358.15 K	825.1	2.51
363.15 K	821.7	2.322

CC/C=C\C/C=C\C/C=C\CCCCCCCC(=O)OC [methyl (Z,Z,Z)-9,12,15-octadecatrienoate]
Conditions	mass density [kg/m3]	viscosity [mPa·s]
278.15 K	913.2	6.361
283.15 K	909.5	5.618
288.15 K	905.7	5.003
293.15 K	901.9	4.484
298.15 K	898.2	4.043
303.15 K	894.5	3.667
308.15 K	890.7	3.341
313.15 K	887	2.925
318.15 K	883.3	2.675
323.15 K	879.6	2.472
328.15 K	876	2.303
333.15 K	872.3	2.123
338.15 K	868.6	1.966
343.15 K	864.9	1.817
348.15 K	861.2	1.688
353.15 K	857.6	1.583
358.15 K	853.9	1.488
363.15 K	850.3	1.402
368.15 K	–	1.327
373.15 K	–	1.253

CCCCCCCC/C=C\CCCCCCCCCC(=O)OC [methyl cis-11-eicosenoate]
Conditions	mass density [kg/m3]	viscosity [mPa·s]
278.15 K	884.8	14.34
283.15 K	881.1	11.97
288.15 K	877.5	10.13
293.15 K	873.8	8.667
298.15 K	870.2	7.488
303.15 K	866.6	6.528
308.15 K	863	5.738
313.15 K	859.5	5.08
318.15 K	855.9	4.529
323.15 K	852.3	4.062
328.15 K	848.8	3.665
333.15 K	845.2	3.323
338.15 K	841.7	3.028
343.15 K	838.2	2.771
348.15 K	834.6	2.546
353.15 K	831.1	2.348
358.15 K	827.6	2.174
363.15 K	824.1	2.019
368.15 K	820.7	1.881
373.15 K	817.3	1.758

CCCCCCCCCCCCCCCCCCCCCC(=O)OC [methyl docosanoate]
Conditions	mass density [kg/m3]	viscosity [mPa·s]
333.15 K	834.5	4.749
338.15 K	831	4.274
343.15 K	827.5	3.866
348.15 K	824.1	3.513
353.15 K	820.6	3.207
358.15 K	817.2	2.939
363.15 K	813.7	2.709
368.15 K	810.3	2.502
373.15 K	806.9	2.317

CCCCCCCCCCCCCCCCCCCC(=O)OC [methyl eicosanoate]
Conditions	mass density [kg/m3]	viscosity [mPa·s]
323.15 K	842.3	4.832
328.15 K	838.7	4.323
333.15 K	834.9	3.889
338.15 K	831.4	3.517
343.15 K	827.8	3.196
348.15 K	824.3	2.918
353.15 K	820.8	2.674
358.15 K	817.3	2.461
363.15 K	813.8	2.273
368.15 K	810.4	2.107
373.15 K	807	1.959

CCCCCCCCCCCCCCCCCCCCCCCC(=O)OC [methyl tetracosanoate]
Conditions	mass density [kg/m3]	viscosity [mPa·s]
338.15 K	830.5	5.139
343.15 K	827.1	4.628
348.15 K	823.7	4.189
353.15 K	820.3	3.81
358.15 K	816.9	3.48
363.15 K	813.5	3.19
368.15 K	810.1	2.933
373.15 K	806.8	2.707
